According to ChEMBL document CHEMBL3885881, “DrugMatrix”:

Species on record: Rattus norvegicus
Test: DrugMatrix - Regimen: Daily Repeat
Type: toxicity, organism-based, Sprague-Dawley
Design: regimen Daily Repeat, gender Male, age 6-8 weeks
Conditions: in vivo, po, route oral GAVAGE, vehicle 100 % WATER; for BASOPHIL / EOSINOPHIL / ERYTHROCYTE COUNT / HEMATOCRIT / HEMOGLOBIN / LEUKOCYTE COUNT / LYMPHOCYTE / MEAN CORPUSCULAR HEMOGLOBIN / MEAN CORPUSCULAR HEMOGLOBIN CONCENTRATION / MEAN CORPUSCULAR VOLUME / MONOCYTE / NEUTROPHIL / PLATELET COUNT: tissue Blood; for ALANINE AMINOTRANSFERASE / ALBUMIN / ALKALINE PHOSPHATASE / ASPARTATE AMINOTRANSFERASE / BLOOD UREA NITROGEN / CHLORIDE / CHOLESTEROL / CREATINE PHOSPHOKINASE / CREATININE / GLUCOSE / PHOSPHORUS / POTASSIUM / SODIUM / TOTAL BILIRUBIN / TOTAL PROTEIN: tissue Plasma
[1] = 0 mg/kg, 72 h, dose level Control, time 3 day
[2] = 0 mg/kg, 120 h, dose level Control, time 5 day
[3] = 3 mg/kg, 72 h, dose level Low, time 3 day
[4] = 3 mg/kg, 120 h, dose level Low, time 5 day
[5] = 24 mg/kg, 72 h, dose level High, time 3 day
[6] = 24 mg/kg, 120 h, dose level High, time 5 day

Nc1c2c(nc3ccccc13)CCCC2 [TACRINE]
BASOPHIL [1]: 0%
EOSINOPHIL [1]: 0.5%
ERYTHROCYTE COUNT [1]: 5.8 x10E6/uL
HEMATOCRIT [1]: 35.07%
HEMOGLOBIN [1]: 14.12 G/DL
LEUKOCYTE COUNT [1]: 13.7 x10E3/uL
LYMPHOCYTE [1]: 82.33%
MEAN CORPUSCULAR HEMOGLOBIN [1]: 24.38 pg
MEAN CORPUSCULAR HEMOGLOBIN CONCENTRATION [1]: 40.28 G/DL
MEAN CORPUSCULAR VOLUME [1]: 60.52 fL
MONOCYTE [1]: 2.67%
NEUTROPHIL [1]: 14.5%
PLATELET COUNT [1]: 911.5 x10E3/uL
ALANINE AMINOTRANSFERASE [1]: 36.83 u/L
ALBUMIN [1]: 3.75 G/DL
ALKALINE PHOSPHATASE [1]: 399.83 u/L
ASPARTATE AMINOTRANSFERASE [1]: 66 u/L
BLOOD UREA NITROGEN [1]: 14.67 mg/dL
CHLORIDE [1]: 101.67 MEQ/L
CHOLESTEROL [1]: 66.33 mg/dL
CREATINE PHOSPHOKINASE [1]: 139.5 u/L
CREATININE [1]: 0.92 mg/dL
GLUCOSE [1]: 175 mg/dL
PHOSPHORUS [1]: 11.42 mg/dL
POTASSIUM [1]: 7.03 MEQ/L
SODIUM [1]: 148.5 MEQ/L
TOTAL BILIRUBIN [1]: 1.13 mg/dL
TOTAL PROTEIN [1]: 6.87 G/DL
BASOPHIL [2]: 0%
EOSINOPHIL [2]: 0.2%
ERYTHROCYTE COUNT [2]: 6.02 x10E6/uL
HEMATOCRIT [2]: 36.48%
HEMOGLOBIN [2]: 14.38 G/DL
LEUKOCYTE COUNT [2]: 12.34 x10E3/uL
LYMPHOCYTE [2]: 83%
MEAN CORPUSCULAR HEMOGLOBIN [2]: 23.92 pg
MEAN CORPUSCULAR HEMOGLOBIN CONCENTRATION [2]: 39.44 G/DL
MEAN CORPUSCULAR VOLUME [2]: 60.66 fL
MONOCYTE [2]: 3%
NEUTROPHIL [2]: 13.8%
PLATELET COUNT [2]: 1190.6 x10E3/uL
ALANINE AMINOTRANSFERASE [2]: 43 u/L
ALBUMIN [2]: 3.73 G/DL
ALKALINE PHOSPHATASE [2]: 393 u/L
ASPARTATE AMINOTRANSFERASE [2]: 62.33 u/L
BLOOD UREA NITROGEN [2]: 16.33 mg/dL
CHLORIDE [2]: 101.67 MEQ/L
CHOLESTEROL [2]: 65.5 mg/dL
CREATINE PHOSPHOKINASE [2]: 130.67 u/L
CREATININE [2]: 0.58 mg/dL
GLUCOSE [2]: 180.67 mg/dL
PHOSPHORUS [2]: 11.28 mg/dL
POTASSIUM [2]: 7.05 MEQ/L
SODIUM [2]: 148.17 MEQ/L
TOTAL BILIRUBIN [2]: 0.72 mg/dL
TOTAL PROTEIN [2]: 6.83 G/DL
BASOPHIL [3]: 0%
EOSINOPHIL [3]: 0.33%
ERYTHROCYTE COUNT [3]: 5.96 x10E6/uL
HEMATOCRIT [3]: 36.4%
HEMOGLOBIN [3]: 14.47 G/DL
LEUKOCYTE COUNT [3]: 12.6 x10E3/uL
LYMPHOCYTE [3]: 87.33%
MEAN CORPUSCULAR HEMOGLOBIN [3]: 24.3 pg
MEAN CORPUSCULAR HEMOGLOBIN CONCENTRATION [3]: 39.77 G/DL
MEAN CORPUSCULAR VOLUME [3]: 61.13 fL
MONOCYTE [3]: 1.67%
NEUTROPHIL [3]: 10.67%
PLATELET COUNT [3]: 1303 x10E3/uL
ALANINE AMINOTRANSFERASE [3]: 36.33 u/L
ALBUMIN [3]: 3.6 G/DL
ALKALINE PHOSPHATASE [3]: 362.33 u/L
ASPARTATE AMINOTRANSFERASE [3]: 59 u/L
BLOOD UREA NITROGEN [3]: 11.33 mg/dL
CHLORIDE [3]: 102.67 MEQ/L
CHOLESTEROL [3]: 64.33 mg/dL
CREATINE PHOSPHOKINASE [3]: 137.67 u/L
CREATININE [3]: 0.53 mg/dL
GLUCOSE [3]: 188 mg/dL
PHOSPHORUS [3]: 12.8 mg/dL
POTASSIUM [3]: 7.17 MEQ/L
SODIUM [3]: 151.33 MEQ/L
TOTAL BILIRUBIN [3]: 0.37 mg/dL
BASOPHIL [4]: 0%
EOSINOPHIL [4]: 0%
ERYTHROCYTE COUNT [4]: 5.42 x10E6/uL
HEMATOCRIT [4]: 32.47%
HEMOGLOBIN [4]: 13.8 G/DL
LEUKOCYTE COUNT [4]: 15.5 x10E3/uL
LYMPHOCYTE [4]: 85.67%
MEAN CORPUSCULAR HEMOGLOBIN [4]: 25.47 pg
MEAN CORPUSCULAR HEMOGLOBIN CONCENTRATION [4]: 42.53 G/DL
MEAN CORPUSCULAR VOLUME [4]: 59.87 fL
MONOCYTE [4]: 2%
NEUTROPHIL [4]: 12.33%
PLATELET COUNT [4]: 1161.67 x10E3/uL
ALANINE AMINOTRANSFERASE [4]: 32 u/L
ALBUMIN [4]: 3.63 G/DL
ALKALINE PHOSPHATASE [4]: 344.33 u/L
ASPARTATE AMINOTRANSFERASE [4]: 54 u/L
BLOOD UREA NITROGEN [4]: 12.67 mg/dL
CHLORIDE [4]: 103 MEQ/L
CHOLESTEROL [4]: 67.33 mg/dL
CREATINE PHOSPHOKINASE [4]: 106 u/L
CREATININE [4]: 0.57 mg/dL
GLUCOSE [4]: 184.33 mg/dL
PHOSPHORUS [4]: 12.4 mg/dL
POTASSIUM [4]: 6.33 MEQ/L
SODIUM [4]: 150.33 MEQ/L
TOTAL BILIRUBIN [4]: 0.37 mg/dL
TOTAL PROTEIN [4]: 6.6 G/DL
BASOPHIL [5]: 0%
EOSINOPHIL [5]: 0.33%
ERYTHROCYTE COUNT [5]: 6.15 x10E6/uL
HEMATOCRIT [5]: 36.57%
HEMOGLOBIN [5]: 14.57 G/DL
LEUKOCYTE COUNT [5]: 11.57 x10E3/uL
LYMPHOCYTE [5]: 88%
MEAN CORPUSCULAR HEMOGLOBIN [5]: 23.7 pg
MEAN CORPUSCULAR HEMOGLOBIN CONCENTRATION [5]: 39.83 G/DL
MEAN CORPUSCULAR VOLUME [5]: 59.5 fL
MONOCYTE [5]: 2.67%
NEUTROPHIL [5]: 9%
PLATELET COUNT [5]: 1311.33 x10E3/uL
ALANINE AMINOTRANSFERASE [5]: 35.33 u/L
ALBUMIN [5]: 3.7 G/DL
ALKALINE PHOSPHATASE [5]: 375 u/L
ASPARTATE AMINOTRANSFERASE [5]: 63.67 u/L
BLOOD UREA NITROGEN [5]: 12 mg/dL
CHLORIDE [5]: 101.67 MEQ/L
CHOLESTEROL [5]: 59.33 mg/dL
CREATINE PHOSPHOKINASE [5]: 117 u/L
CREATININE [5]: 0.53 mg/dL
GLUCOSE [5]: 189 mg/dL
PHOSPHORUS [5]: 12.73 mg/dL
POTASSIUM [5]: 6.83 MEQ/L
SODIUM [5]: 150 MEQ/L
TOTAL BILIRUBIN [5]: 0.37 mg/dL
TOTAL PROTEIN [5]: 6.53 G/DL
BASOPHIL [6]: 0%
EOSINOPHIL [6]: 0.33%
ERYTHROCYTE COUNT [6]: 6.22 x10E6/uL
HEMATOCRIT [6]: 37.53%
HEMOGLOBIN [6]: 14.57 G/DL
LEUKOCYTE COUNT [6]: 11.73 x10E3/uL
LYMPHOCYTE [6]: 88.33%
MEAN CORPUSCULAR HEMOGLOBIN [6]: 23.43 pg
MEAN CORPUSCULAR HEMOGLOBIN CONCENTRATION [6]: 38.8 G/DL
MEAN CORPUSCULAR VOLUME [6]: 60.47 fL
MONOCYTE [6]: 2.33%
NEUTROPHIL [6]: 9%
PLATELET COUNT [6]: 1085 x10E3/uL
ALANINE AMINOTRANSFERASE [6]: 38 u/L
ALBUMIN [6]: 3.53 G/DL
ALKALINE PHOSPHATASE [6]: 295.33 u/L
ASPARTATE AMINOTRANSFERASE [6]: 62.67 u/L
BLOOD UREA NITROGEN [6]: 13.33 mg/dL
CHLORIDE [6]: 104.67 MEQ/L
CHOLESTEROL [6]: 62 mg/dL
CREATINE PHOSPHOKINASE [6]: 114.67 u/L
CREATININE [6]: 0.6 mg/dL
GLUCOSE [6]: 171 mg/dL
PHOSPHORUS [6]: 12.57 mg/dL
POTASSIUM [6]: 6.4 MEQ/L
SODIUM [6]: 152.33 MEQ/L
TOTAL BILIRUBIN [6]: 0.27 mg/dL
TOTAL PROTEIN [6]: 6.33 G/DL
